Laboratory results from US20160366888A1, “ENVIRONMENTALLY FRIENDLY FORMULATIONS FOR BI-COMPONENT HETEROCYCLIC SCHIFF BASE TEXTILE FINISHES” (Government of the United States as Represented by the …, priority 2013, published 2016).

Tests used:
[1] = tested on: B. subtilis; test: Antimicrobial activity (zone of inhibition) of treated cotton fabric; type: cell-based; settings: aqueous solution applied to cotton fabric; observation over all plates
Excerpt: (§1) Each aqueous solution prepared and applied to cotton fabric and tested for antimicrobial activity.
(§2) In Table 2, below, “5+” represents a zone of inhibition ranging 41 mm to 50 mm; “4+” represents a zone of 31 mm to 40 mm; “3+” represents a zone of 21 mm to 30 mm; “2+” represents a zone of 11 mm to 20 mm; “1+” represents a zone of 1 mm to 10 mm; and “−” represents no antimicrobial activity noted.
(§3) The American Association of Textile Chemists and Colorists (AATCC) test method 147, Antibacterial Assessment of Textile Materials was used to qualitatively test the biocidal efficacy of pretreatment solutions according to an embodiment of the present invention. Test material was aseptically transferred directly onto the surface of an inoculated nutrient agar slurry. After a specified incubation contact time, the test material was removed and any growth, or lack thereof, beneath the test material surface is recorded.

[2] = tested on: S. aureus; test: as above; type: cell-based; settings: aqueous solution applied to cotton fabric; observation over all plates
Excerpt: as §1, §2, §3

Row | SMILES | clearing of plates in words, B. subtilis [1] | clearing of plates in words, S. aureus [2]
1 | Oc1cccc2cccnc12 [8HQ, 8-hydroxyquinoline] | cleared plates 2 | –
2 | O=S(=O)(O)O.Oc1cccc2cccnc12.Oc1cccc2cccnc12 [Quinolinol salt hemisulfate, 8-HQ hemisulfate] | – | Cleared all of
